Here are results for two compounds from patent US9499493B2, “2,4-pyrimidinediamine compounds and their uses” (Rigel Pharmaceuticals, Inc., priority 2002, dated 2016).

A short description of test [1]: Sheep model of allergic asthma (Ascaris suum challenge). The format is in vivo. Particulars: aqueous suspension; for LAR and AHR (in words) / AHR (% inhibition) / EAR (% inhibition) / LAR (% inhibition): 45 mg/sheep; for LAR and AHR (in words): 60 minutes prior to allergen challenge; for AHR (% inhibition) / EAR (% inhibition) / LAR (% inhibition): pretreatment 60 min. On the procedure: Sheep develop bronchoconstriction within minutes of exposure to inhaled antigen (Ascaris suum), with maximal airflow obstruction during the early allergic response (EAR). Release of preformed mast cell mediators is likely responsible for this early phase of airflow obstruction. […] In the sheep, AHR develops a few hours following antigen challenge, and can persist for up to 2 weeks.
In the sheep model of allergic asthma, sheep are administered aerosols of test article via an endotracheal tube, followed by an aerosol challenge with antigen extracted from the roundworm, Ascaris suum, to which the sheep are naturally allergic. Allergen challenge leads to direct bronchoconstriction (both EAR and LAR) and a persistent non-specific AHR. These three characteristics are similar to those seen in human allergic asthmatics. The activity of the test agent is determined by changes in the lung resistance (RL), which is calculated from measurements of transpulmonary pressure, flow, and respiratory volume. […] The LAR is a less pronounced increase in RL, which starts approximately 5-6 hours following allergen challenge and is resolved by 8 hours post-challenge. Twenty-four hours after the challenge, a dose response to carbachol is measured to determine the AHR, which is expressed as the dose of carbachol required to increase RL by 400% over baseline. (This measurement is referred to as the provocative concentration of carbachol that elicits a 400% increase in RL over baseline (PC400). The data are compared to historical control data for the same individual when administered a saline control aerosol and challenged with Ascaris suum.

For test [2], the system named is basophil cells. The experiment in a line: Basophil dustmite activation: histamine release assay. The format is cell-based. Particulars: human basophils, house dustmite stimulus; second part of TABLE 1. On the procedure:
(§1) The basophil activation assay was carried out using whole human peripheral blood from donors allergic to dust mites with the majority of the red blood cells removed by dextran sedimentation. Human peripheral blood was mixed 1:1 with 3% dextran T500 and RBCs were allowed to settle for 20-25 min. The upper fraction was diluted with 3 volumes of D-PBS and cells were spun down for 10 min at 1500 rpm, RT. Supernatant was aspirated and cells were washed in an equal volume MT-buffer. Finally, cells were resuspended in MT-buffer containing 0.5% DMSO in the original blood volume. 80 uL cells were mixed with 20 uL compound in the presence of 0.5% DMSO, in triplicate, in a V-bottom 96-well tissue culture plate. A dose range of 8 compound concentrations was tested resulting in a 10-point dose response curve including maximum (stimulated) and minimum (unstimulated) response. […] The cells were stimulated for 30 minutes at 37° C., 5% CO2. The plate was spun for 10 min at 1500 rpm at room temperature and 80 uL the supernatant was harvested for histamine content analysis using the histamine ELISA kit supplied by Immunotech. The ELISA was performed according to supplier's instructions.

For test [3], the system named is basophil cells. The experiment in a line: Basophil ionomycin activation: histamine release assay. Particulars: Basophils. In kind it is cell-based, human. On the procedure:
as §1
Assays for ionomycin-induced basophil cell degranulation were carried out as described for the Basophil IgE or Dustmite Activation Assay (Section 6.4.6, supra), with the exception that following incubation with compound, cells were stimulated with 20 μl of 2 μM ionomycin.

In test [4] the test system is basophil cells. The experiment in a line: Basophil IgE activation: histamine release assay. In kind it is cell-based, human. Particulars: Basophils, anti-IgE. The protocol: as §1
The subject of test [5] is cultured human mast cells (CHMC). As to the kind of experiment: CHMC low cell density ionomycin activation: tryptase assay. The format is cell-based.
The test system is the same in test [6]. The experiment in a line: CHMC high cell density IgE activation: LTC4. The format is cell-based. Particulars: anti-IgE activation. The protocol: Inhibition of degranulation was measured at both low and high cell density by quantifying the release of the granule specific factors tryptase, histamine and hexosaminidase. Inhibition of release and/or synthesis of lipid mediators was assessed by measuring the release of leukotriene LTC4 and inhibition of release and/or synthesis of cytokines was monitored by quantifying TNF-α, IL-6 and IL-13. Tryptase and hexosaminidase were quantified using fluorogenic substrates as described in their respective examples. […] The protocols of the various assays are provided below.
After sensitizing, cells are counted, pelleted (1000 rpm, 5-10 minutes), and resuspended at 1-2×10^6 cells/ml in MT buffer. Add 100 ul of cell suspension to each well and 100 ul of compound dilutions. The final vehicle concentration is 0.5% DMSO. Incubate at 37° C. (5% CO2) for 1 hour. After 1 hour of compound treatment, stimulate cells with 6× anti-IgE. Mix wells with the cells and allow plates to incubate at 37° C. (5% CO2) for one hour. After 1 hour incubation, pellet cells (10 minutes, 1000 RPM) and collect 200 ul per well of the supernatant, being careful not to disturb pellet. Place the supernatant plate on ice. During the 7-hour step (see next) perform tryptase assay on supernatant that had been diluted 1:500. Resuspend cell pellet in 240 ul of CM media containing 0.5% DMSO and corresponding concentration of compound. Incubate CHMC cells for 7 hours at 37° C. (5% CO2). After incubation, pellet cells (1000 RPM, 10 minutes) and collect 225 ul per well and place in −80° C. until ready to perform ELISAS. ELISAS are performed on appropriately diluted samples (determined empirically for each donor cell population so that the sample measurement falls within the standard curve) following the supplier's instructions.

Test [7] shares this test system. As to the kind of experiment: CHMC high cell density IgE activation: histamine. In kind it is cell-based. Particulars: anti-IgE activation. Put shortly:
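IgE-sensitized CHMC at 1-2×10^6 cells/ml were pretreated with compound for 1 h at 37 °C (0.5% DMSO final), then anti-IgE-stimulated for 1 h and supernatant collected. Hexosaminidase was read with a fluorogenic substrate. Pellets were re-incubated 7 h with compound before supernatant ELISAs.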

Test [8] relates to bone marrow derived mast cells (BMMC). The experiment in a line: BMMC high cell density IgE activation: TNFalpha. Particulars: anti-IgE, second part of TABLE 1, read-out: BMMC anti-IgE TNF-alpha IC50. In kind it is cell-based, mouse. Put shortly:
(§2)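 IgE-sensitized BMMC (1-3×10^6 cells/ml, MT buffer) were pretreated with compound for 1 h at 37 °C in 0.5% DMSO, then stimulated with DNP-BSA (6× stimulus, 60 ng/ml) for 1 h. Supernatant was taken, and cells were re-incubated 4–5 h in WEI-conditioned medium with compound. Mediators were quantified by ELISA.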

The test system is the same in test [9]. The experiment in a line: BMMC high cell density IgE activation: LTC4. The format is cell-based, mouse. Particulars: anti-IgE, second part of TABLE 1. The gist of the method: as §2

Several values for one entry are separate records, joined by “and”; a condition that tells them apart may be missing. Equal entries are not always repeated.

The IC50 is the point on the concentration scale where inhibition reaches its midpoint. Turning to `CNC(=O)COc1cccc(Nc2ncc(F)c(Nc3ccc4c(c3)NCCO4)n2)c1` [R921219, N4-(1,4-Benzoxazin-6-yl)-5-fluoro-N2-[3-(N-methylamino)carbonylmethyleneoxyphenyl]-2,4-pyrimidinediamine], in test [1], the “LAR and AHR (in words)” value is “blocked”. In addition, in [1], the “AHR (% inhibition)” value was 90%. For the same compound, in test [1], the “EAR (% inhibition)” value is 54% and 56%. In test [1], the “LAR (% inhibition)” value is on record as 75%. Also, the “EAR (in words)” value in test [1] was “greatly reduced”. The half-inhibitory concentration (IC50) in the test with basophil cells [2] was 20 nM; in the test with basophil cells [3], greater than 10000 nM; in the test with basophil cells [4], 25 nM; in [5], greater than 10000 nM; in [6], 34 nM; in [7] it was 162 nM. Moreover, the IC50 in [8] came to 39 nM; in [9], 40 nM.
For the compound `CNC(=O)COc1cccc(Nc2ncc(F)c(Nc3cccc(O)c3)n2)c1` [R926508, 5-Fluoro-N4-(3-hydroxyphenyl)-N2-[3-(N-methylamino)carbonylmethyleneoxyphenyl]-2,4-pyrimidinediamine], the “LAR and AHR (in words)” value in [1] is reported as “blocked”. For the same compound, in test [1], the “AHR (% inhibition)” value amounted to 88%. Also, the “EAR (% inhibition)” value in test [1] turned out to be 21%. Moreover, the “LAR (% inhibition)” value in [1] stood at 90%. In test [1], the “EAR (in words)” value is “greatly reduced”. Besides, the IC50 was 54 nM in the test on basophil cells [2]; greater than 10000 nM with basophil cells [3]; 65 nM with basophil cells [4]; greater than 10000 nM in test [5]; 505 nM in [6]; 105 nM in test [7]. For the same compound, the IC50 in test [8] was 54 nM; in test [9] it was 162 nM.
